The test system of data set [1] is in vitro skin equivalent cultures (primary human keratinocytes and fibroblasts). Briefly: Organotypic skin culture, in-situ zymography with casein substrate. Format: cell-based. As to conditions: 10 μM in PBS, topical, once every day for two days. As for the experimental part:
Primary keratinocytes and fibroblasts were isolated from skin biopsies from healthy donors and incubated with 0.25% trypsin/EDTA 3 hours for keratinocytes and Serva 50U/ml collagenase NB6 (Universal Biologicals, Cambridge, UK) 2 hours for fibroblasts. Isolated primary keratinocytes were then co-cultured with lethally irradiated 3T3 mouse fibroblasts and grown in keratinocyte culture media. Primary keratinocytes and fibroblasts from normal donors’ skin biopsies were cultivated in vitro on de-epidermalized dermal matrix as described. Briefly, dermal fibroblasts derived from skin biopsies were seeded onto the reticular side of the de-epidermalized dermal matrix and keratinocytes were seeded on the papillary side. After keratinocytes reached confluence, the culture was lifted at the air-liquid interface for 14 days. The OTCs were then topically treated with Analogue 6 (10 μL, 10 μM) or 1xPBS for the untreated control in two doses each separated by 24hrs. Following treatment, the cultures were harvest and embedded in O.C.T.™ (Sakura Finetek, Netherlands) for cryosections. The cryosections (7 μm thick) of the treated and untreated tissues were washed with 1xPBS. […] Sections were examined under a Leica DM LB fluorescence microscope and the images processed using ImageJ (v1.46).

The next data set deals with N-tert skin cells. Briefly: KLK5-induced IL-8 secretion, ELISA. In kind it is cell-based, human. As to conditions: KLK5 300 nM, Analogue 6 1515 nM (molar excess 5:1), N-tert cells, 6, 24 and 48 hours.
The target in data set [2] is T1, KLK5 (Homo sapiens, UniProt Q9Y337).
T1 construct: purchased Novoprotein
T1 sequence (Q9Y337 23-293): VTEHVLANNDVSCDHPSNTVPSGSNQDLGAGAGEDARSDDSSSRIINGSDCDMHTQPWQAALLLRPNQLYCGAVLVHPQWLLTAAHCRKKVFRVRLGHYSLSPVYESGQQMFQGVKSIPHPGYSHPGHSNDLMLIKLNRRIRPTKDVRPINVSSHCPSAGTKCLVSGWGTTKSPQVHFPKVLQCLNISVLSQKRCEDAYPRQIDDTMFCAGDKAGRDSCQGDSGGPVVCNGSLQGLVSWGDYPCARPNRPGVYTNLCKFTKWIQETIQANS
Briefly: KLK5 inhibition, fluorogenic Boc-VPR-AMC assay (S1 Table conditions). As to conditions: KLK5 10 nM, Boc-VPR-AMC 41.6 μM, 1xPBS pH 8.0, 15 min on ice preincubation, read at 15 min, 25°C. In kind it is biochemical. The protocol:
All assays were performed on 96-well microplates and the change in relative fluorescence unit (RFU) was measured by fluorescence spectrometer (BMG FLUOstar OPTIMA). […] Stock solution of Boc-VPR-AMC was prepared by dissolving the solid in dimethyl sulfoxide to 100 mM and 10 mM for MeOSuc-AAPV. For BODIPY_FL casein, it was reconstituted to 1 mg/mL in 1xPBS. […] The % of inhibition was calculated by the following equation: % of Inhibition=(1−(Sample RFU − Min RFU)/(Max RFU − Min RFU)) X100
(§1) Each inhibition curves were done in triplicates with a minimum of five concentration points fitted. Fitting of each curve was done using SigmaPlot with the Four Parameter Logistic Function and the IC50 calculated. […] All tested compounds were reconstituted to stock solution in water.
The diluent for all the tested compounds, protein and substrate was 1xPBS pH 8.0. Zinc sulfate and p-aminobenzamidine were purchased from Sigma (Dorset, U.K.). […] The ligand-protein mixtures were incubated on ice for 15 minutes and 20 μL was transferred to a well of a 96-well microplate (ThermoScientific, Waltham, U.S.) in triplicate. […] Change in RFU was measured 15 minutes after substrate addition at 25°C.

The target in data set [3] is T1, KLK5. Briefly: biochemical. As for the experimental part:
All assays were performed on 96-well microplates and the change in relative fluorescence unit (RFU) was measured by fluorescence spectrometer (BMG FLUOstar OPTIMA). The excitation/emission wavelength was 360/460 nm for the substrate Boc-VPR-AMC (Bachem AG, Hauptstrasse, Switzerland) and MeOSuc-AAPV-AMC (Bachem AG, Hauptstrasse, Switzerland) and 485/520 nm for BODIPY_FL casein (Invitrogen, Carlsbad, US). Stock solution of Boc-VPR-AMC was prepared by dissolving the solid in dimethyl sulfoxide to 100 mM and 10 mM for MeOSuc-AAPV. For BODIPY_FL casein, it was reconstituted to 1 mg/mL in 1xPBS. […] The % of inhibition was calculated by the following equation: % of Inhibition=(1−(Sample RFU − Min RFU)/(Max RFU − Min RFU)) X100
as §1
The diluent for all the tested compounds, protein and substrate was 1xPBS. Serially diluted ligands were mixed with diluted recombinant KLK5 (10 nM f/c). The ligand-protein mixtures were incubated on ice for one hour and 19.5 μL was pipetted into a well of a 96-well microplate in triplicates. To start the reaction, 100 μL of the diluted (41.6 μM f/c) Boc-VPR-AMC substrate solution (contained 0.05% v/v Brij35) was added. The plate was incubated at 37°C and the RFU reading was taken 15 minutes after.
There are two previously reported Km values for KLK5 and its substrate Boc-VPR-AMC which allowed the IC50 to Ki conversion. Ki values were calculated according to the Cheng-Prusoff equation Ki= IC50/1+[S]/Km for single site competitive binding.

“Also recorded” adds a separate entry of the source. Positions of bridges follow the written chain, without caps; N, C: chain ends. Residues, ends and D or L forms follow the SMILES beside them.

Take `CC[C@H](C)[C@@H]1NC(=O)[C@H](CO)NC(=O)[C@H](CCCNC(=N)N)NC(=O)[C@H]([C@@H](C)O)NC(=O)[C@@H]2CSSC[C@H](NC(=O)[C@H](Cc3c[nH]cn3)NC(=O)[C@@H]3CCCN3C(=O)[C@@H]3CCCN3C1=O)C(=O)N[C@@H](Cc1c[nH]c3ccccc13)C(=O)N1CCC[C@H]1C(=O)N[C@@H](CC(=O)O)C(=O)NCC(=O)N[C@@H](CCCNC(=N)N)C(=O)N2` [Analogue 6] (cyclo(CTRSIPPHCWPDGR); disulfide 1-9): in data set [1], the “penetration of the cornified layer of in vitro grown skin” value is recorded as “penetrated the cornified layer” and the “skin protease activity in epidermis (in-situ zymography)” value is given as “weaker in the epidermis of the treated skin compared to untreated skin”. For the same compound, the “suppression of KLK5-induced IL-8 increase” value in the data set with N-tert skin cells is “suppress IL-8 increase up to 6 hours (p<0.05) but not 24 hours after stimulation; also recorded: delay the KLK5-induced IL-8 release by up to 6 hours but not for 24 hours”.
For orientation: IC50 means the concentration needed to halve the response being measured. A higher IC50 goes with weaker potency. For the compound `CC[C@H](C)[C@@H]1NC(=O)[C@@H]2CCCN2C(=O)[C@@H]2CCCN2C(=O)[C@H]([C@@H](C)CC)NC(=O)[C@H](CO)NC(=O)[C@H](CCCCN)NC(=O)[C@H]([C@@H](C)O)NC(=O)[C@@H]2CSSC[C@H](NC1=O)C(=O)N[C@@H](Cc1ccccc1)C(=O)N1CCC[C@H]1C(=O)N[C@@H](CC(=O)O)C(=O)NCC(=O)N[C@@H](CCCNC(=N)N)C(=O)N2` [Native SFTI, Sunflower Trypsin Inhibitor 1, reference compound], the IC50 against KLK5 [2] is 300 nM.
In general, Ki refers to a dissociation constant, usually derived from enzyme kinetics or from competition with a known ligand. Regarding `CC[C@H](C)[C@@H]1NC(=O)[C@H](CO)NC(=O)[C@H](CCCCN)NC(=O)[C@H]([C@@H](C)O)NC(=O)[C@@H]2CSSC[C@H](NC(=O)[C@H](Cc3c[nH]cn3)NC(=O)[C@@H]3CCCN3C(=O)[C@@H]3CCCN3C1=O)C(=O)N[C@@H](Cc1ccccc1)C(=O)N1CCC[C@H]1C(=O)N[C@@H](CC(=O)O)C(=O)NCC(=O)N[C@@H](CCCNC(=N)N)C(=O)N2` [Analogue I10H] (cyclo(CFPDGRCTKSIPPH); disulfide 1-7), the IC50 stood at 760 nM at KLK5 [2] and 352 ± 144 nM against KLK5 [3] (KLK5 10 nM, Boc-VPR-AMC 41.6 μM, 1xPBS, one hour on ice preincubation, read at 15 min, 37°C). Moreover, the Ki on KLK5 [3] (calculated from Table 2 IC50 by Cheng-Prusoff equation, read-out: Inhibitory Constant (Ki)) is 322 nM.

(Values after PMC5100903, “Tissue Kallikrein Inhibitors Based on the Sunflower Trypsin Inhibitor Scaffold – A Potential Therapeutic Intervention for Skin Diseases” (PLoS ONE, 2016).)
